Ki data for 24 molecules are collected here from ChEMBL document CHEMBL1142695, “Discovery of functionally selective 7,8,9,10-tetrahydro-7,10-ethano-1,2,4-triazolo[3,4-a]phthalazines as GABA A receptor agonists at the alpha3 subunit” (J Med Chem, 2005).

Bounds are passed on as bounds.

As a reminder, the Ki is a measure of affinity in units of concentration, obtained from inhibition or displacement.

Format in all cases: cell-based
The target in test [1] is T1, GABA-A receptor; alpha-2/beta-3/gamma-2 (Homo sapiens, UniProt P18507+P28472+P47869).
T1 sequence (P18507 whole entry): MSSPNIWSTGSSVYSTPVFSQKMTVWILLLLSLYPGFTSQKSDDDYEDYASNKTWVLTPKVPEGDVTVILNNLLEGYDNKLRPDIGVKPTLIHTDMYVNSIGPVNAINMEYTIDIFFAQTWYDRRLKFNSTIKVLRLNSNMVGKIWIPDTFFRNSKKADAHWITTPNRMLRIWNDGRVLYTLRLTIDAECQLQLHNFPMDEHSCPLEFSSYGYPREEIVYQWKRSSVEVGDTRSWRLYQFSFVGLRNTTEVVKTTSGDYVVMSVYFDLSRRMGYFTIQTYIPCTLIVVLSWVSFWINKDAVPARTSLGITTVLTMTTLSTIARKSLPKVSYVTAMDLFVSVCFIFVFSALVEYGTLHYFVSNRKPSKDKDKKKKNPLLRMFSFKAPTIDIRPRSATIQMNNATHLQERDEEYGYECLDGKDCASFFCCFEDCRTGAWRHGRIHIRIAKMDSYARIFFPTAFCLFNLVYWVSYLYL
T1 sequence (P28472 whole entry): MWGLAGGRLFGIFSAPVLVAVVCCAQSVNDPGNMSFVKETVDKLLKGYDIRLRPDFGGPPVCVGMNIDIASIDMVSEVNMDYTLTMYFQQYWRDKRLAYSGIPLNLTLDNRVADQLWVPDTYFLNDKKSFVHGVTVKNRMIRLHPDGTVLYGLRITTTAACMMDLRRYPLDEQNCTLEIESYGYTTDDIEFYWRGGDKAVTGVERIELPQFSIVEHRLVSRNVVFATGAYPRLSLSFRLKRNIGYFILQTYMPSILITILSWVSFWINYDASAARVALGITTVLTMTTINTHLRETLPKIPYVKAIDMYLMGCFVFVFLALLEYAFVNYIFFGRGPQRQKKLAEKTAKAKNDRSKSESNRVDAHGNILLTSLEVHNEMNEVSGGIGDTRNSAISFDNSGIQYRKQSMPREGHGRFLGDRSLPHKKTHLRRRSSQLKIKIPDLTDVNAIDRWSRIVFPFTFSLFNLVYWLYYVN
T1 sequence (P47869 whole entry): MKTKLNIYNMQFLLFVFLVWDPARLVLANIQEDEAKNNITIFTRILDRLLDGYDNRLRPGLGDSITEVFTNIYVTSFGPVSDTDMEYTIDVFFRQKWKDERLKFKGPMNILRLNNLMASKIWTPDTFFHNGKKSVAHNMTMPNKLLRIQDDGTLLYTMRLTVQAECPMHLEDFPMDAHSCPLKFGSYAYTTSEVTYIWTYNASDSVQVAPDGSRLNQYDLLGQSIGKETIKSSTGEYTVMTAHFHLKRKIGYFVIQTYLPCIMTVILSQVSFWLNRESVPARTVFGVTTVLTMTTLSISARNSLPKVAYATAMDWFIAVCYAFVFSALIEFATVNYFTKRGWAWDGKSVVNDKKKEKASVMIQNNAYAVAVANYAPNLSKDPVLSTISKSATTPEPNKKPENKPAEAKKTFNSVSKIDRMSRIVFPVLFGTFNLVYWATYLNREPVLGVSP
The test is described as follows: Inhibition of [3H]Ro-151788 binding to recombinant human gamma-aminobutyric acid A receptor alpha-2-beta-3-gamma-2 subtype expressed in L (tk-) cells.

Test [2] concerns the target T2, GABA-A receptor; alpha-1/beta-3/gamma-2 (Homo sapiens, UniProt P14867+P18507+P28472).
T2 sequence (P14867 whole entry): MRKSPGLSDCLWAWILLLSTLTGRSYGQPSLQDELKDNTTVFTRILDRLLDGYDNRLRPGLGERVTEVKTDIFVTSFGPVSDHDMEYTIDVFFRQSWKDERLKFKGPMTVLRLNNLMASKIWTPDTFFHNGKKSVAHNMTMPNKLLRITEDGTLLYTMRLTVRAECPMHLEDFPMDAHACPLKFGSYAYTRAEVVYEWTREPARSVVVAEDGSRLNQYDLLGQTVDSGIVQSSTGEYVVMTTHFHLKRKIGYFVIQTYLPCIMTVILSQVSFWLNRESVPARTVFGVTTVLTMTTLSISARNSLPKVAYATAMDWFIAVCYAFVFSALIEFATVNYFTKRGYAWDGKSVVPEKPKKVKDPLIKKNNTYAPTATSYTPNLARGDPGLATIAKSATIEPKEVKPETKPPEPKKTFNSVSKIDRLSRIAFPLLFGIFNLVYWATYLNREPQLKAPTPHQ
T2 sequence (P18507 whole entry): T1 sequence (P18507 whole entry)
T2 sequence (P28472 whole entry): T1 sequence (P28472 whole entry)
As to the kind of experiment: Inhibition of [3H]Ro-151788 binding to recombinant human gamma-aminobutyric-acid A receptor alpha-1-beta-3-gamma-2 subtype expressed in L (tk-) cells.

Test [3] has as its target T3, GABA-A receptor; alpha-3/beta-3/gamma-2 (Homo sapiens, UniProt P18507+P28472+P34903).
T3 sequence (P18507 whole entry): T1 sequence (P18507 whole entry)
T3 sequence (P28472 whole entry): T1 sequence (P28472 whole entry)
T3 sequence (P34903 whole entry): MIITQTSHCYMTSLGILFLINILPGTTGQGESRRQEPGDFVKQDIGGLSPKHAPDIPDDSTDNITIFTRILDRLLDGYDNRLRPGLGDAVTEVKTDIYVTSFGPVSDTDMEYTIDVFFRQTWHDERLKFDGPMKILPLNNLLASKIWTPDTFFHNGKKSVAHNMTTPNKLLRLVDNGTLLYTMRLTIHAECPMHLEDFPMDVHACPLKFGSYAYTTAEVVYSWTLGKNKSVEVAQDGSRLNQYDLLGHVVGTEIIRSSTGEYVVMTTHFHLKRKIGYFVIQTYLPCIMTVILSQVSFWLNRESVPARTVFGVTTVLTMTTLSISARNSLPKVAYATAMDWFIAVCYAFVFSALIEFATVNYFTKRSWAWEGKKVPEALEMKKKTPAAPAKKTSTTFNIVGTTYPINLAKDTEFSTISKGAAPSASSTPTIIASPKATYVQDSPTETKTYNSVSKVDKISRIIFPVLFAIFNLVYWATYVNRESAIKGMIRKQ
As to the kind of experiment: Inhibition of [3H]Ro-151788 binding to recombinant human gamma-aminobutyric-acid A receptor alpha-3-beta-3-gamma-2 subtype expressed in L (tk-) cells.

For test [4], the target named is T4, GABA-A receptor; alpha-5/beta-3/gamma-2 (Homo sapiens, UniProt P18507+P28472+P31644).
T4 sequence (P18507 whole entry): T1 sequence (P18507 whole entry)
T4 sequence (P28472 whole entry): T1 sequence (P28472 whole entry)
T4 sequence (P31644 whole entry): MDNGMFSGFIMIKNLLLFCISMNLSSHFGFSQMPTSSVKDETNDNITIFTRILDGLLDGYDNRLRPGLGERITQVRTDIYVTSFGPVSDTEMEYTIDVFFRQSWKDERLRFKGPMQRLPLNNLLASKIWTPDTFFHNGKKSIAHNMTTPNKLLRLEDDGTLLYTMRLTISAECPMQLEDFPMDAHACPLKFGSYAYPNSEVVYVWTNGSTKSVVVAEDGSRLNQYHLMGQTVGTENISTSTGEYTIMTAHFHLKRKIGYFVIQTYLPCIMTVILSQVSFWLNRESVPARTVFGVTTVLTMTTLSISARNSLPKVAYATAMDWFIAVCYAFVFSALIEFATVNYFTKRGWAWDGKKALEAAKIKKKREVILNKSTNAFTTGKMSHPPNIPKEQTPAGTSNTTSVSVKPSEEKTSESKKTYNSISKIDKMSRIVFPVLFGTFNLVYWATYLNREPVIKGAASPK
As to the kind of experiment: Inhibition of [3H]Ro-151788 binding to recombinant human gamma-aminobutyric-acid A receptor alpha-5-beta-3-gamma-2 subtype expressed in L (tk-) cells.

Turning to `CN1CCCCC1COc1nn2c(-c3ccccc3)nnc2c2c1C1CCC2CC1` (centres undefined), the inhibition constant Ki in test [1], in test [2], in test [3] and in test [4] was more than 1000 nM in each case.

On to `c1ccc(-c2nnc3c4c(c(COc5ccccn5)nn23)C2CCC4CC2)cc1`, for which the Ki came out at 230 nM in test [1], 440 nM in test [2], 120 nM in test [3] and 58 nM in test [4].

Regarding `c1ccc(-c2nnc3c4c(c(OCc5ncccc5OC5CCC5)nn23)C2CCC4CC2)cc1`, the Ki was 43 nM in test [1], 32 nM in test [2], 38 nM in test [3] and 4.2 nM in test [4].

On to `Cc1cnc(COc2nn3c(-c4ccccc4)nnc3c3c2C2CCC3CC2)s1`, for which the inhibition constant Ki in test [1] worked out at 28 nM; in test [2] it was 100 nM; in test [3], 24 nM; in test [4] it was 2 nM.

On to `O=C1CCC(COc2nn3c(-c4ccccc4)nnc3c3c2C2CCC3CC2)N1` (centres undefined), for which the Ki was determined as 480 nM in test [1], 730 nM in test [2], 260 nM in test [3] and 59 nM in test [4].

For the molecule `O=C(COc1nn2c(-c3ccccc3)nnc2c2c1C1CCC2CC1)N1CCCC1`, the Ki in test [1] is 160 nM; in test [2], 230 nM; in test [3] it was 50 nM; in test [4] it was 9 nM.

As to `Cc1cccc(CCCOc2nn3c(-c4ccccc4)nnc3c3c2C2CCC3CC2)n1`, the Ki in test [1] worked out at 190 nM; in test [2], 75 nM; in test [3], 240 nM; in test [4] it was 30 nM.

As for `c1ccc(-c2nnc3c4c(c(OCc5ncccn5)nn23)C2CCC4CC2)cc1`, the inhibitory constant (Ki) is 68 nM in test [1], 87 nM in test [2], 33 nM in test [3] and 9.2 nM in test [4].

Turning to `Cn1nnc(COc2nn3c(-c4ccccc4)nnc3c3c2C2CCC3CC2)n1`, the Ki in test [1] was 57 nM; in test [2], 60 nM; in test [3], 37 nM; in test [4], 6.5 nM.

On to `c1ccc(-c2nnc3c4c(c(OCc5ccc6ccccc6n5)nn23)C2CCC4CC2)cc1`, for which the Ki came out at 200 nM in test [1], 480 nM in test [2], 77 nM in test [3] and 9.5 nM in test [4].

Take `Cc1csc(COc2nn3c(-c4ccccc4)nnc3c3c2C2CCC3CC2)n1`: the inhibitory constant (Ki) is 40 nM in test [1], 140 nM in test [2], 30 nM in test [3] and 2.9 nM in test [4].

On to `Cc1ccccc1-c1nnc2c3c(c(OCc4ccccn4)nn12)C1CCC3CC1`, for which the inhibitory constant (Ki) in test [1] is 280 nM; in test [2] it was more than 1000 nM; in test [3], 280 nM; in test [4], 22 nM.

`OCC1CCC(COc2nn3c(-c4ccccc4)nnc3c3c2C2CCC3CC2)CC1` (trans isomer): the Ki in test [1] came to 77 nM; in test [2] it was 150 nM; in test [3], 57 nM; in test [4], 41 nM.

For `Oc1cccnc1COc1nn2c(-c3ccccc3)nnc2c2c1C1CCC2CC1`, the Ki in test [1] stood at 470 nM; in test [2], 270 nM; in test [3], 180 nM; in test [4], 34 nM.

As to `CCO[n+]1ccccc1Oc1nn2c(-c3ccccc3)nnc2c2c1C1CCC2CC1`, the Ki was 390 nM in test [1], more than 1000 nM in test [2], 550 nM in test [3] and 64 nM in test [4].

`CN(C)C(=O)COc1nn2c(-c3ccccc3)nnc2c2c1C1CCC2CC1`: the inhibition constant (Ki) in test [1] came to 160 nM; in test [2] it was 220 nM; in test [3], 89 nM; in test [4], 10 nM.

Take `Cc1nc(COc2nn3c(-c4ccccc4)nnc3c3c2C2CCC3CC2)no1`: the Ki in test [1] came out at 110 nM; in test [2], 140 nM; in test [3], 66 nM; in test [4], 16 nM.

Turning to `c1ccc(-c2nnc3c4c(c(OCc5nnc[nH]5)nn23)C2CCC4CC2)cc1`, the Ki in test [1] is 25 nM; in test [2] it was 43 nM; in test [3], 19 nM; in test [4], 2.8 nM.

Take `CN1CCCC(COc2nn3c(-c4ccccc4)nnc3c3c2C2CCC3CC2)C1` (centres undefined): the Ki in test [1] was 260 nM; in test [2] it was 750 nM; in test [3] it was 460 nM; in test [4] it was 100 nM.

As to `N#Cc1ccccc1COc1nn2c(-c3ccccc3)nnc2c2c1C1CCC2CC1`, the inhibitory constant (Ki) is 83 nM in test [1], 190 nM in test [2], 53 nM in test [3] and 2.6 nM in test [4].

Take `c1ccc(-c2nnc3c4c(c(OCc5ccsc5)nn23)C2CCC4CC2)cc1`: the Ki in test [1], in test [2], in test [3] and in test [4] was more than 500 nM each time.

In the case of `N#Cc1ccc(COc2nn3c(-c4ccccc4)nnc3c3c2C2CCC3CC2)cc1`, the Ki in test [1] was found to be 110 nM; in test [2], 310 nM; in test [3], 70 nM; in test [4], 9.4 nM.

With `Cc1ccc(-c2nc3ccc(C)cn3c2CC(=O)N(C)C)cc1` [ZOLPIDEM], the figures for the Ki in test [1], in test [3] and in test [4] were 103 nM, 246 nM and more than 3330 nM, respectively.

For `Fc1ccc(-c2nnc3c4c(c(OCc5ccccn5)nn23)C2CCC4CC2)cc1`, the inhibition constant (Ki) came out at 180 nM in test [1], 310 nM in test [2] and 27 nM in test [4].
